Data set [1] is described as follows: Half life in mouse plasma at 1 uM. The data set is classed as ADME, cell-free.
The nature of data set [2]: Half life in human plasma at 1 uM. The data set is classed as ADME, cell-free.
Data set [3] concerns the target T1, Protein-glutamine gamma-glutamyltransferase (Homo sapiens, UniProt P21980).
T1 sequence (P21980 whole entry): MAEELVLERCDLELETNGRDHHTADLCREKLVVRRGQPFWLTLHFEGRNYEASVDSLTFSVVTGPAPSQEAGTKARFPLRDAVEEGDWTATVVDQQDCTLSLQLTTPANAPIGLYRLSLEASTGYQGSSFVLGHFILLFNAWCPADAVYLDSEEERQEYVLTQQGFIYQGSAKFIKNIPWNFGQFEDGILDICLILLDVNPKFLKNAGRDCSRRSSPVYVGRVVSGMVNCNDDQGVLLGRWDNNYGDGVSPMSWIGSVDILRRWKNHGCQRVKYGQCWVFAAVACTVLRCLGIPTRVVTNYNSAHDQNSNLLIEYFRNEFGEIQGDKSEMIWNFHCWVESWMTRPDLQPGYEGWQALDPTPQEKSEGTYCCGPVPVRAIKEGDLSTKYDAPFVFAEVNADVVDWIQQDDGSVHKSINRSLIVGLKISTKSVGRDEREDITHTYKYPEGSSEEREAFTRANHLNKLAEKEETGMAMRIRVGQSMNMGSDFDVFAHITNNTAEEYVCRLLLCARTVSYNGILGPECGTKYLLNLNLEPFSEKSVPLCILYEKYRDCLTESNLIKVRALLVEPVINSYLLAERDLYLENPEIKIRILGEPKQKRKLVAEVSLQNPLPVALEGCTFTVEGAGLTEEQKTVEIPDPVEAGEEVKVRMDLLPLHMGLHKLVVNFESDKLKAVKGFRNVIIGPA
Briefly: Inhibition of human TGM2.

A value given as a limit tells only on which side of the number the result lay.

The term half-life denotes how long it takes for the measured level to halve. A low value points to fast loss. With `C=CC(=O)N1CCN(S(=O)(=O)c2ccc(NC(=O)OCc3ccccc3)cc2)CC1`, the half-life at 1 µM in data set [1] and in data set [2] was greater than 6 h throughout.
A word on the IC50: it is the concentration at which inhibition is half-maximal. Higher therefore signals a need for much substance. On to `Nc1ccc(S(=O)(=O)N2CCN(C(=O)C3CC3)CC2)cc1`, for which the half-life at 1 µM in data set [1] was greater than 24 h; in data set [2], greater than 6 h. In data set [3], the IC50 was greater than 80000 nM.
In the same order, the values of `C=CC(=O)NCC1CCN(S(=O)(=O)c2ccc(NC(=O)OCc3ccccc3)cc2)CC1` are greater than 6 h, greater than 6 h and 5100 nM.
For `C=CC(=O)NCCN(C)S(=O)(=O)c1ccc(NC(=O)OCc2ccccc2)cc1`, the half-life at 1 µM in data set [1] and in data set [2] was greater than 6 h in each case. This compound also came in with an IC50 in data set [3] of 3300 nM.
For `C=CC(=O)N[C@H]1CCCN(S(=O)(=O)c2ccc(NC(=O)OCc3ccccc3)cc2)C1`, the half-life at 1 µM in data set [1] and in data set [2] was greater than 6 h in each case. The IC50 in data set [3] was greater than 80000 nM.
Consider `C=CC(=O)N[C@@H]1CCCN(S(=O)(=O)c2ccc(NC(=O)OCc3ccccc3)cc2)C1`, for which the half-life at 1 µM in data set [1] and in data set [2] was greater than 6 h each time. This compound also yielded an IC50 in data set [3] greater than 80000 nM.
As to `C=CC(=O)N[C@H]1CCN(S(=O)(=O)c2ccc(NC(=O)OCc3ccccc3)cc2)C1`, the half-life at 1 µM in data set [1] and in data set [2] was greater than 6 h throughout. For the same compound, in data set [3], half-maximal inhibition (IC50) required 55000 nM.
Take `C=CC(=O)N[C@@H]1CCN(S(=O)(=O)c2ccc(NC(=O)OCc3ccccc3)cc2)C1`: the half-life at 1 µM in data set [1] and in data set [2] was greater than 6 h throughout. In data set [3], this compound displayed an IC50 of 30000 nM.
As for `C=CC(=O)NC1CN(S(=O)(=O)c2ccc(NC(=O)OCc3ccccc3)cc2)C1`, the half-life at 1 µM in data set [1] and in data set [2] was greater than 6 h each time. Besides, in data set [3], the IC50 is 1600 nM.
As to `C=CC(=O)NC1CCN(S(=O)(=O)c2ccc(C(=O)NCc3ccccc3)cc2)CC1`, the half-life at 1 µM in data set [1] and in data set [2] was greater than 6 h each time. Half-maximal inhibition in data set [3] (IC50) required 200 nM.
As to `C=CC(=O)NC1CCN(S(=O)(=O)c2ccc(C(=O)NCCCc3ccccc3)cc2)CC1`, the half-life at 1 µM in data set [1] and in data set [2] was greater than 6 h in each case. In data set [3], this compound registered a 50% inhibitory concentration (IC50) of 770 nM.
With `C=CC(=O)NC1CCN(S(=O)(=O)c2ccc(C(=O)N3CCc4ccccc4C3)cc2)CC1`, the half-life at 1 µM in data set [1] and in data set [2] was greater than 6 h in each case. The compound also displayed an IC50 in data set [3] of 620 nM.
As to `C=CC(=O)NC1CCN(S(=O)(=O)c2ccc(C(=O)N(C)CCc3ccccc3)cc2)CC1`, the half-life at 1 µM in data set [1] and in data set [2] was greater than 6 h in each case. In data set [3], the IC50 was 460 nM.
Consider `C=CC(=O)NC1CCN(S(=O)(=O)c2ccc(C(=O)N(C)Cc3ccccc3)cc2)CC1`, for which the half-life at 1 µM in data set [1] and in data set [2] was greater than 6 h in each case. The compound also gave an IC50 in data set [3] of 630 nM.
For the compound `C=CC(=O)NC1CCN(S(=O)(=O)c2ccc(C(=O)NCCC3CCCCC3)cc2)CC1`, the half-life at 1 µM in data set [1] and in data set [2] was greater than 6 h throughout. The compound also gave an IC50 in data set [3] of 140 nM.
Consider `C=CC(=O)NC1CCN(S(=O)(=O)c2ccc(C(=O)NCCC34CC5CC(CC(C5)C3)C4)cc2)CC1`, for which the half-life at 1 µM in data set [1] and in data set [2] was greater than 6 h each time. This compound also displayed an IC50 in data set [3] of 660 nM.
With `C=CC(=O)NC1CCN(S(=O)(=O)c2ccc(C(=O)NCCC3CCOCC3)cc2)CC1`, the half-life at 1 µM in data set [1] and in data set [2] was greater than 6 h each time. In data set [3], this compound registered an IC50 of 360 nM.
Regarding `C=CC(=O)NC1CCN(S(=O)(=O)c2ccc(C(=O)NCCN3CCOCC3)cc2)CC1`, the half-life at 1 µM in data set [1] and in data set [2] was greater than 6 h throughout. Besides, inhibition in data set [3] was half-maximal at 380 nM (IC50).
Consider `C=CC(=O)NC1CCN(S(=O)(=O)c2ccc(C(=O)NCc3cccc4ccccc34)cc2)CC1`, for which the half-life at 1 µM in data set [1] and in data set [2] was greater than 6 h in each case. The IC50 in data set [3] came to 170 nM.
With `C=CC(=O)NC1CCN(S(=O)(=O)c2ccc(C(=O)NC3CCCc4ccccc43)cc2)CC1` (centres undefined), the half-life at 1 µM in data set [1] and in data set [2] was greater than 6 h in each case. This compound gave an IC50 in data set [3] of 320 nM.

The record behind these values is ChEMBL document CHEMBL2150866, “Irreversible 4-Aminopiperidine Transglutaminase 2 Inhibitors for Huntington's Disease” (ACS Med Chem Lett, 2012).
